{"source": "paper PMC7308888", "about": "“Development of a cell-free split-luciferase biochemical assay as a tool for screening for inhibitors of challenging protein-protein interaction targets” (Wellcome Open Research, 2020)", "molecular_target": "T1, KRAS-G12C (Homo sapiens, UniProt P01116, G12C)", "T1 construct": "full-length KRAS-G12C, Sm-BiT fused at the N-terminus; with p110α RBD (aa133-314), LgBiT fusion", "assay": "NanoBiT split-luciferase KRAS/RBDα interaction assay in HEK293 cell lysate", "assay_type": "biochemical", "data": [{"smiles": "Cn1cnc(Cn2ccc3ccc(CNCc4[nH]c5ccccc5c4[C@H]4NC(=O)c5ccc(O)cc54)cc32)c1", "note": "[BI-2852]", "values": [{"measurement": "NanoBiT split-luciferase KRAS/RBDα interaction assay in HEK293 cell lysate", "result": "~ 1 µM"}]}]}
